The results in this text go back to US8772498B2, “Alkylamine-substituted dicyanopyridine and amino acid ester prodrugs thereof” (Bayer Intellectual Property GmbH, priority 2009, dated 2014).

The structures appear in SMILES notation. Counter-ions that a name gives are not always drawn.

The nature of data set [1]: i.v. pharmacokinetics in Wistar rats. In kind it is in vivo. The settings on record: after i.v. administration. The procedure: e) i.v. Pharmacokinetics in Wistar Rats:
(§1) On the day before administration of the substance, a catheter for obtaining blood is implanted in the jugular vein of the experimental animals (male Wistar rats, body weight 200-250 g) under Isofluran® anesthesia.
(§2) On the day of the experiment, a defined dose of the test substance is administered as solution into the tail vein using a Hamilton® glass syringe (bolus administration, duration of administration<10 s). Blood samples (8-12 time points) are taken through the catheter sequentially over the course of 24 h after administration of the substance. Plasma is obtained by centrifuging the samples in heparinized tubes. Acetonitrile is added to a defined plasma volume per time point to precipitate proteins. After centrifugation, test substance and, where appropriate, known cleavage products of the test substance in the supernatant are determined quantitatively using a suitable LC/MS-MS method.
The measured plasma concentrations are used to calculate pharmacokinetic parameters of the test substance and of the active ingredient compound (A) liberated therefrom, such as AUC, Cmax, T1/2 (half-life) and CL (clearance).

Data set [2] can be described thus: Oral pharmacokinetics in Wistar rats. In kind it is in vivo. The following applies: after oral administration. The protocol:
f) Oral Pharmacokinetics in Wistar Rats:
as §1
as §2, with “stomach by gavage.” for “tail vein using a Hamilton® glass syringe (bolus administration, duration of administration<10 s).”
The measured plasma concentrations are used to calculate pharmacokinetic parameters of the test substance and of the active ingredient compound (A) liberated therefrom, such as AUC, Cmax and T1/2 (half-life).

Data set [3] can be described thus: Stability in buffer at various pH values. In kind it is physicochemical. The procedure:
b) Stability in Buffer at Various pH Values:
0.3 mg of the test substance is weighed into a 2 ml HPLC vial and 0.5 ml of acetonitrile or acetonitrile/DMSO (9:1) is added. The substance is dissolved by putting the sample vessel in an ultrasonic bath for about 10 seconds. Then 0.5 ml of the respective (buffer) solution is added, and the sample is again treated in the ultrasonic bath.
(Buffer) solutions employed:
pH 4: 1 liter of Millipore water is adjusted to pH 4.0 with 1 N hydrochloric acid;
pH 7.4: 90.0 g of sodium chloride, 13.61 g of potassium dihydrogen phosphate and 83.35 g of 1 N sodium hydroxide solution are made up to 1 liter with water; this solution is then further diluted 1:10 with Millipore water.
5 μl portions of the test solution are analyzed by HPLC for their content of unchanged test substance, and of active substance (A) produced, every hour over a period of 24 hours at 37° C. The percentage areas of the appropriate peaks are used for quantification.
HPLC method for Examples 41 and 44:
Agilent 1100 with DAD (G1315B), binary pump (G1312A), autosampler (G1329A), column oven (G1316A), thermostat (G1330B); column: Kromasil 100 C18, 250 mm×4 mm, 5 μm; column temperature: 30° C.; mobile phase A: water+5 ml of perchloric acid/liter, eluent B: acetonitrile; gradient: 0 min 90% A→5.0 min 40% A→18.0 min 10% A→19.0 min 10% A→21.0 min 90% A→23.0 min 90% A; flow rate: 2.0 ml/min; UV detection: 288 nm.
HPLC Method for Examples 50 and 59:
Agilent 1100 with DAD (G1315B), binary pump (G1312A), autosampler (G1329A), column oven (G1316A), thermostat (G1330B); column: Kromasil 100 C18, 125 mm×4 mm, 5 μm; column temperature: 30° C.; mobile phase A: water+5 ml of perchloric acid/liter, eluent B: acetonitrile; gradient: 0 min 90% A→5.0 min 60% A→7.0 min 60% A→10.0 min 10% A→12.0 min 10% A→14.0 min 90% A→16.0 min 90% A; flow rate: 2.0 ml/min; UV detection: 294 nm.
HPLC Method for Example 54:
Agilent 1100 with DAD (G1314A), binary pump (G1312A), autosampler (G1329A), column oven (G1316A), thermostat (G1330A); column: Kromasil 100 C18, 250 mm×4 mm, 5 μm; column temperature: 30° C.; mobile phase A: water+5 ml of perchloric acid/liter, eluent B: acetonitrile; gradient: 0 min 90% A→5.0 min 40% A→18.0 min 10% A→19.0 min 10% A→21.0 min 90% A→23.0 min 90% A; flow rate: 2.0 ml/min; UV detection: 288 nm.
The ratios of the peak areas (F) at the respective time points in relation to the peak areas at the starting time are shown in Table 2 for representative exemplary embodiments: […]

Data set [4] can be described thus: Determination of the solubility in 5% strength aqueous dextrose solution. The following applies: saline or isotonic, thermodynamic from solid, room temperature, 24 h. In kind it is physicochemical. The procedure:
B-8. Determination of Solubility, Stability and Liberation Behavior a) Determination of the Solubility:
The test substance is suspended in 5% strength aqueous dextrose solution. This suspension is shaken at room temperature for 24 h. After ultracentrifugation at 224 000 g for 30 min, the supernatant is diluted with DMSO and analyzed by HPLC. A two-point calibration plot of the test compound in DMSO is used for quantification.
Agilent 1100 with DAD (G1315A), quat. pump (G1311A), autosampler CTC HTS PAL, degasser (G1322A) and column thermostat (G1316A); column: Phenomenex Gemini C18, 5 μm, 50 mm×2 mm; temperature: 40° C.; eluent A: water/phosphoric acid pH 2; eluent B: acetonitrile; flow rate: 0.7 ml/min; gradient: 0-0.5 min 85% A, 15% B; ramp: 0.5-3 min 10% A, 90% B; 3-3.5 min 10% A, 90% B; ramp: 3.5-4 min 85% A, 15% B; 4-5 min 85% A, 15% B.
Agilent 1100 with DAD (G1315A), quat. pump (G1311A), autosampler CTC HTS PAL, degasser (G1322A) and column thermostat (G1316A); column: VDSoptilab Kromasil 100 C18, 3.5 μm, 60 mm×2.1 mm; temperature: 30° C.; eluent A: water+5 ml perchloric acid/I; eluent B: acetonitrile; flow rate: 0.75 ml/min; gradient: 0-0.5 min 98% A, 2% B; ramp: 0.5-4.5 min 10% A, 90% B; 4.5-6 min 10% A, 90% B; ramp: 6.5-6.7 min 98% A, 2% B; 6.7-7.5 min 98% A, 2% B.

Data set [5] relates to spontaneously hypertensive rats. In words: Measurement of blood pressure and heart rate on awake rats (telemetry). In kind it is in vivo. The settings on record: maximum reduction in heart rate, oral administration of 3 mg/kg, awake SH rats. The procedure: B-5. Measurement of Blood Pressure and Heart Rate
Awake spontaneously hypertensive rats (SH-Ratten) carrying an internal transmitter capable of measuring permanently both blood pressure and heart rate (telemetric monitoring of hemodynamic parameters) and sitting in a cage fitted with motion sensors are orally administered test substances in various dosages. Blood pressure and heart rate and changes thereof, and also the movements and the activity of the animals are then recorded and evaluated for 24 hours.

Data set [6] can be described thus: Stability in suspension (isopropanol, 7 days). In kind it is physicochemical. The following applies: room temperature, LC/MS. The protocol:
c) Stability in Suspension and as Solid:
4.7-4.8 g of the test substance are suspended in 200 ml of isopropanol and stirred at room temperature for 7 days. The solid is filtered off and air-dried at room temperature for 3 days. LC/MS (Method 2) is then used to measure whether there has been a degradation of the test substance.

Data set [7] in a line: Stability as solid (90° C., 7 days). In kind it is physicochemical. The settings on record: sealed vial, HPLC. The protocol:
To assess the stability of the solids, 20 mg of the solids obtained in this manner are stored in a sealed Head-Space vial at 90° C. in a drying cabinet without vacuum for 7 days. HPLC is then used to measure whether there has been a degradation of the test substance.
HPLC Method for Measuring the Stability of the Solid of Example 63:
HPLC Method for Measuring the Stability of the Solid of Example 44: […]

Broadly, the solubility is the concentration that dissolves in the medium under given conditions. Low values mean a poorly soluble substance, high ones a readily soluble substance.

As to `C[C@H](NC(=O)[C@@H](N)CCCCN)C(=O)OCCOc1ccc(-c2c(C#N)c(SCc3csc(-c4ccc(Cl)cc4)n3)nc(N3CCCC3)c2C#N)cc1` [Example 41, 2-{4-(2-({(2-(4-Chlorophenyl)-1,3-thiazol-4-ylmethyl}sulfanyl)-3,5-dicyano-6-(pyrrolidin-1-yl)pyridin-4-yl)phenoxy}ethyl L-lysyl-L-alaninatedihydrochloride], the “Detectability of the administered substance in plasma” value (from here on “Detectability”) in data set [1] and in data set [2] was “no longer detectable in plasma even at the first measurement point” throughout. Also, the “% test substance after 4 h (F(t = 4 h) × 100/F(t = 0 h))” value (from here on “% test substance after 4 h”) was determined as 97% in data set [3] (pH 4, 37° C.) and 37% in data set [3] (pH 7.4, 37° C.). The “% test substance after 24 h (F(t = 24 h) × 100/F(t = 0 h))” value (shortened to “% test substance after 24 h”) in data set [3] (pH 4, 37° C.) was 99%; in data set [3] (pH 7.4, 37° C.), 0%. Further, in data set [4], the solubility at 24 h is 650 µg/mL. Moreover, the Heart rate reduction in data set [5] was −5%.
Turning to `C[C@H](N)C(=O)N[C@@H](C)C(=O)OCCOc1ccc(-c2c(C#N)c(SCc3csc(-c4ccc(Cl)cc4)n3)nc(N3CCCC3)c2C#N)cc1` [Example 44, 2-{4-(2-({(2-(4-Chlorophenyl)-1,3-thiazol-4-yl)methyl}sulfanyl)-3,5-dicyano-6-(pyrrolidin-1-yl)pyridin-4-yl)phenoxy}ethyl L-alanyl-L-alaninate hydrochloride], the “Degradation of the test substance in suspension” value in data set [6] was “no degradation”. The “Detectability” value in data set [1] and in data set [2] was “no longer detectable in plasma even at the first measurement point” throughout. In data set [7], the “Degradation of the solid” value was “no degradation”. Also, the “% test substance after 4 h” value in data set [3] (pH 4, 37° C.) was found to be 99%; in data set [3] (pH 7.4, 37° C.), 78%. For the same molecule, the “% test substance after 24 h” value in data set [3] (pH 4, 37° C.) amounted to 99%; in data set [3] (pH 7.4, 37° C.), 26%. In data set [4], this molecule came in with a solubility at 24 h of 410 µg/mL. Also, the Heart rate reduction in data set [5] was −20%.
In the case of `CC[C@H](C)[C@H](N)C(=O)N[C@@H](C)C(=O)OCCOc1ccc(-c2c(C#N)c(SCc3csc(-c4ccc(Cl)cc4)n3)nc(N3CCCC3)c2C#N)cc1` [Example 63, 2-{4-(2-({(2-(4-Chlorophenyl)-1,3-thiazol-4-yl)methyl}sulfanyl)-3,5-dicyano-6-(pyrrolidin-1-yl)pyridin-4-yl)phenoxy}ethyl L-isoleucyl-L-alaninate hydrochloride], the “Degradation of the test substance in suspension” value in data set [6] is “no degradation”. Also, the “Detectability” value in data set [1] and in data set [2] was “no longer detectable in plasma even at the first measurement point” in each case. Also, in data set [7], the “Degradation of the solid” value was “no degradation”. Besides, the “% test substance after 4 h” value in data set [3] (pH 4, 37° C.) was determined as 98%; in data set [3] (pH 7.4, 37° C.) it was 93%. Further, the “% test substance after 24 h” value was 98% in data set [3] (pH 4, 37° C.) and 67% in data set [3] (pH 7.4, 37° C.). For the same molecule, the Heart rate reduction in data set [5] is −20%.
